We go through eight compounds from patent US20250049799A1, “Targeted Therapy of Pyrrolo[2,3-D]Pyrimidine Antifolates in a Syngeneic Mouse Model of High Grade Serous Ovarian Cancer” (Duquesne University of The Holy Spirit, priority 2021, published 2025).

In test [1] the target is FRβ (Homo sapiens, UniProt P14207). As to conditions: comparison of Table 3 values with PMX.
For test [2], the system named is BR-Luc mouse HGSOC tumor cells. As to the kind of experiment: Cell proliferation assay (CellTiter-blue, 96 h), BR-Luc cells. Type of test: cell-based. As for the experimental part:
(§1) Results with BR-5 and BR-Luc cells were compared to those for IGROV1 human EOC cells (Table 1) in the absence and presence of excess folic acid (200 nM), which selectively blocks FR-mediated drug uptake without effects on RFC or PCFT^6. […] Further, inhibitions of the murine EOCs by all compounds approximated those for IGROV1 human EOC cells.
(§2) Cell proliferation assays were performed as described^6, 21. Cells were plated in 96-well dishes at densities ranging from 2500-5000 cells/well in 200 μL media and treated with a range of inhibitors spanning 0-1000 nM. Experiments used BR-5 and BR-Luc cells and folate-free RPMI 1640 media with 10% dialyzed FBS and 100 units/mL penicillin/100 μg/mL streptomycin, supplemented with 25 nM leucovorin and 2 mM L-glutamine. FR-mediated drug uptake was assessed in parallel incubations including 200 nM folic acid. Cells were treated over a 96 h period at 37° C. with 5% CO2 and relative cell numbers were quantified using the CellTiter-blue cell viability assay (Promega, Madison, WI) and a fluorescence plate reader^21. Raw data were exported to Excel for analysis and the results plotted using Graphpad Prism 6.0.
Background: Alamar Blue is a resazurin reagent that responds to reducing activity.

For test [3], the system named is BR-5 mouse HGSOC tumor cells. The test is described as follows: Cell proliferation assay (CellTiter-blue, 96 h), BR-5 cells. In kind it is cell-based. As for the experimental part:
as §1, §2

For test [4], the system named is IGROV1 human EOC cells. The test is described as follows: Cell proliferation assay, IGROV1 cells. Type of test: cell-based. The method, then:
as §1, §2

Read-outs that look alike come from different tables or passages of the source.

FRβ, sequence (P14207 17-230): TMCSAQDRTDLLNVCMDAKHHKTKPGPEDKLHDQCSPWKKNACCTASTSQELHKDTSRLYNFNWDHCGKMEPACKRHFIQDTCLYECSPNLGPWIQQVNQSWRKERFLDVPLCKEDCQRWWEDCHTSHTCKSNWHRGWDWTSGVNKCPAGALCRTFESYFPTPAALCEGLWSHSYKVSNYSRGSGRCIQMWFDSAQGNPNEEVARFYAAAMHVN

With `Nc1nc2[nH]c(CCCCc3csc(C(=O)N[C@@H](CCC(=O)O)C(=O)O)c3F)cc2c(=O)[nH]1` [AGF278], the “Transport by folate receptor beta compared with pemetrexed (PMX)” value in test [1] was “at least ten times better transported”. Moreover, the IC50 in test [2] (Mus musculus, no folic acid, folate-free RPMI1640, 25 nM leucovorin, mean ± SE, read-out: IC50 anti-proliferative activity BR-Luc, No addition) turned out to be 6.06 ± 3.12 nM; in test [2] (Mus musculus, read-out: IC50 anti-proliferative activity BR-Luc, Folic Acid (200 nM), with 200 nM folic acid, mean ± SE) it was 588 ± 162 nM; in test [3] (Mus musculus, no folic acid, mean ± SE, read-out: IC50 anti-proliferative activity BR-5, No addition), 6.55 ± 3.24 nM; in test [3] (Mus musculus, read-out: IC50 anti-proliferative activity BR-5, Folic Acid (200 nM), with 200 nM folic acid, mean ± SE), 547 ± 188 nM; in test [4] (Homo sapiens, IGROV-1, no folic acid, mean ± SE, read-out: IC50 anti-proliferative activity IGROV1, No addition), 1.9 ± 0.15 nM; in test [4] (Homo sapiens, IGROV-1, read-out: IC50 anti-proliferative activity IGROV1, Folic Acid (200 nM), with 200 nM folic acid, mean ± SE), 426 ± 152 nM.
Consider `N.N.[Cl][Pt][Cl]` [Cisplatin, reference compound], for which the IC50 in test [2] (no folic acid, folate-free RPMI1640, 25 nM leucovorin, mean ± SE, read-out: IC50 anti-proliferative activity BR-Luc, No addition) was 290 ± 170 nM; in test [3] (no folic acid, mean ± SE, read-out: IC50 anti-proliferative activity BR-5, No addition) it was 160 ± 110 nM; in test [4] (no folic acid, mean ± SE, read-out: IC50 anti-proliferative activity IGROV1, No addition), 857 ± 62.3 nM.
For the compound `Nc1nc2[nH]c(CCCc3ccc(C(=O)N[C@@H](CCC(=O)O)C(=O)O)s3)cc2c(=O)[nH]1` [Compound 1], the “Transport by folate receptor beta compared with pemetrexed (PMX)” value in test [1] was “at least ten times better transported”.
The same measure, in the same setting: as for `Nc1nc2[nH]c(CCCCc3ccc(C(=O)N[C@@H](CCC(=O)O)C(=O)O)cc3)cc2c(=O)[nH]1` [Compound 2], the entry is “at least ten times better transported”; as for `Nc1nc2[nH]c(CCCCc3ccc(C(=O)N[C@@H](CCC(=O)O)C(=O)O)nc3)cc2c(=O)[nH]1` [Compound 4], “at least ten times better transported”.
The same measure, in the same setting: as for `Nc1nc2[nH]c(CCCCc3csc(C(=O)N[C@@H](CCC(=O)O)C(=O)O)c3)cc2c(=O)[nH]1` [Compound 5], the entry is “at least ten times better transported”; as for `Nc1nc2[nH]c(CCCCc3ccc(C(=O)N[C@@H](CCC(=O)O)C(=O)O)c(F)c3)cc2c(=O)[nH]1` [Compound 8], “at least ten times better transported”; as for `Nc1nc2[nH]c(CCCCc3cnc(C(=O)N[C@@H](CCC(=O)O)C(=O)O)c(F)c3)cc2c(=O)[nH]1` [Compound 10], “at least ten times better transported”.

What is called IC50 is the point on the concentration scale where inhibition reaches its midpoint.
